Experimental data as given in publication PMC5056392, “CD4-mimetic sulfopeptide conjugates display sub-nanomolar anti-HIV-1 activity and protect macaques against a SHIV162P3 vaginal challenge” (Scientific Reports, 2016).
Like-named read-outs stand apart in the source and are kept apart here.

Legend:
SHIV162P3 [1] = conditions: TZM-bl cells; cited from earlier work
Excerpt: (§1) Similarly, HEC gel formulated cyanovirin was s ...

SHIV = conditions: cited from earlier work
Excerpt: as §1

HIV-1 Bal = assay: TZM-bl antiviral assay, Bal; format: cell-based; conditions: Human immunodeficiency virus 1, BAL; Table 2; B-R5; 10^-3 MOI, TZM-bl cells, 48 h; mean of at least 2 independent experiments, triplicates
Method: (§2) The IC50 of the various mCD4-conjugates were measured in TZM-bl cells (NIH AIDS Reagent Program, Germantown, MD 20874, US). This cell line expresses high densities of CD4, CCR5 and CXCR4. It contains a luciferase reporter gene under control of HIV LTR, which will be transcribed and translated into luciferase protein, if the cells get infected with HIV and start producing Tat. Briefly, 50 μl of TZM-bl cells (1 × 10^5 cells/mL) supplemented with 30 μg/mL DEAE dextran were incubated with a 50 μl of a 10-fold serial dilution of the compounds under investigation in 96-well flat bottom plates, prior to inoculation with 50 μl of various viruses (see Tables & and 2; 50, 100 or 200 TCID50 was used depending on the virus). As a positive control, 50 μl of compound-free medium was used and as a negative control, 100 μl of medium was added to 100 μl of TZM-bl cells. All conditions were done in triplicates. The plates were incubated for 48 hours (37 °C, 5% CO2). […] Next, the luciferase activity was measured using a TriStar LB941 luminometer (Berthold Technologies GmbH & Co. KG., Bad Wildbad, Germany) and expressed in relative light units (RLU) as a percentage of positive control wells. IC50 were calculated in GraphPad Prism 5.03 using non-linear regression (GraphPad Software, San Diego, CA, USA).

HIV-1 VI824 = assay: microbe, parasite or virus in culture; format: cell-based; conditions: Human immunodeficiency virus 1, TZM-bl, 48 h, read-out: IC50 VI824
Method: (§3) The IC50 of the various mCD4-conjugates were measured in TZM-bl cells (NIH AIDS Reagent Program, Germantown, MD 20874, US). This cell line expresses high densities of CD4, CCR5 and CXCR4. It contains a luciferase reporter gene under control of HIV LTR, which will be transcribed and translated into luciferase protein, if the cells get infected with HIV and start producing Tat. Briefly, 50 μl of TZM-bl cells (1 × 10^5 cells/mL) supplemented with 30 μg/mL DEAE dextran were incubated with a 50 μl of a 10-fold serial dilution of the compounds under investigation in 96-well flat bottom plates, prior to inoculation with 50 μl of various viruses (see Tables & and 2; 50, 100 or 200 TCID50 was used depending on the virus). As a positive control, 50 μl of compound-free medium was used and as a negative control, 100 μl of medium was added to 100 μl of TZM-bl cells. All conditions were done in triplicates. The plates were incubated for 48 hours (37 °C, 5% CO2). Subsequently, 120 μL of supernatants were removed, 75 μl of the luciferase substrate Steadylite (Perkin Elmer, Life Sciences, Zaventem, Belgium) were added to the wells and the plates were incubated at room temperature on an orbital shaker for 10 minutes. Next, the luciferase activity was measured using a TriStar LB941 luminometer (Berthold Technologies GmbH & Co. KG., Bad Wildbad, Germany) and expressed in relative light units (RLU) as a percentage of positive control wells. IC50 were calculated in GraphPad Prism 5.03 using non-linear regression (GraphPad Software, San Diego, CA, USA).

HIV-1 p246F10 = assay: microbe, parasite or virus in culture; format: cell-based; conditions: Human immunodeficiency virus 1, TZM-bl, 48 h, read-out: IC50 P246F10
Method: as §3

HIV-1 pWITO.c/2474 = assay: microbe, parasite or virus in culture; format: cell-based; conditions: Human immunodeficiency virus 1, TZM-bl, 48 h, read-out: IC50 pWITO.c/2474
Method: as §3

HIV-1 pZM247Fv2 = assay: microbe, parasite or virus in culture; format: cell-based; conditions: Human immunodeficiency virus 1, TZM-bl, 48 h, read-out: IC50 pZM247Fv2
Method: as §3

HIV-1 pREJO.c/2864 cl2 = assay: microbe, parasite or virus in culture; format: cell-based; conditions: Human immunodeficiency virus 1, TZM-bl, 48 h, read-out: IC50 pREJO.c/2864 cl2
Method: as §3

HIV-1 MP568 (CRF02) = assay: microbe, parasite or virus in culture; format: cell-based; conditions: Human immunodeficiency virus 1, TZM-bl, 48 h, read-out: IC50 MP568 (CRF02)
Method: as §3

HIV-1 pTHRO.c/2626 = assay: microbe, parasite or virus in culture; format: cell-based; conditions: Human immunodeficiency virus 1, TZM-bl, 48 h, read-out: IC50 pTHRO.c/2626
Method: as §3

HIV-1 Ca10-3 (CRF01) = assay: microbe, parasite or virus in culture; format: cell-based; conditions: Human immunodeficiency virus 1, TZM-bl, 48 h, read-out: IC50 Ca10-3 (CRF01)
Method: as §3

HIV-1 VI1888 (CRF01) = assay: microbe, parasite or virus in culture; format: cell-based; conditions: Human immunodeficiency virus 1, TZM-bl, 48 h, read-out: IC50 VI1888 (CRF01)
Method: as §3

TZM-bl cells = assay: WST-1 cytotoxicity assay; format: cell-based; conditions: Table 2, 50% cytotoxic concentration, WST-1, 48 h
Method: The water soluble tetrazolium-1 (WST-1) cell proliferation assay is based on the cleavage of the tetrazolium salt WST-1 to a formazan dye by a complex cellular mechanism. Because this bioreduction is dependent on the glycolytic production of NAD(P)H in viable cells, the amount of formazan dye formed is correlates directly to the number of viable cells in a culture. Quantification is done by measuring absorbance at 450 nm in a multiwell plate reader. TZMbl cells (10^4 cells/well) were plated in a 96-well plate and a serial dilution of compound was added. 48 h later, cell proliferation reagent was added and cell viability was measured compared to untreated control cultures. Cell viability was plotted against the compound concentration and non-linear regression analysis was performed to calculate the 50% cytotoxic concentration (CC50).

HIV-1 SF162 = assay: TZM-bl antiviral assay, SF162; format: cell-based; conditions: Human immunodeficiency virus 1; Table 2; B-R5; 10^-3 MOI, TZM-bl cells, 48 h; mean of at least 2 independent experiments, triplicates
Method: as §2

HIV-1 MN = assay: TZM-bl antiviral assay, MN; format: cell-based; conditions: Human immunodeficiency virus 1; Table 2; B-X4; 10^-3 MOI, TZM-bl cells, 48 h; mean of at least 2 independent experiments, triplicates
Method: as §2

HIV-1 = conditions: vaginal gel formulation (Tenofovir) or vaginal ring (Dapivirin); cited from earlier work
Method: Microbicides offer distinct advantages as their use should reduce side effects associated with systemic treatment and they could prevent the establishment of viral founder populations. Up to now several molecules targeting the attachment and entry of HIV were tested in clinical trials, including surfactants, such as nonoxynol–9 and C31G that disrupt the viral lipid envelope and non-specific polyanions, such as carrageenan, cellulose sulfate, as well as a sulfonated naphthalene derivative (PRO2000), presumably mimicking heparan sulfate (HS) and blocking virus-cell interactions. ...

SHIV162P3 [2] = assay: TZM-bl antiviral assay, SHIV162P3; format: cell-based, SHIV; conditions: Table 2; B-R5; 10^-3 MOI, TZM-bl cells, 48 h; mean of at least 2 independent experiments, triplicates
Method: as §2

HIV-1 VI820 = assay: TZM-bl antiviral assay, VI820; format: cell-based; conditions: Human immunodeficiency virus 1; Table 2; A-X4R5; 10^-3 MOI, TZM-bl cells, 48 h; mean of at least 2 independent experiments, triplicates
Method: as §2

HIV-1 IIIB = assay: TZM-bl antiviral assay, IIIB; format: cell-based; conditions: Human immunodeficiency virus 1, IIIB; Table 2; B-X4; 10^-3 MOI, TZM-bl cells, 48 h; mean of at least 2 independent experiments, triplicates
Method: as §2

HIV-1 VI829 = assay: TZM-bl antiviral assay, VI829; format: cell-based; conditions: Human immunodeficiency virus 1; Table 2; C-R5; 10^-3 MOI, TZM-bl cells, 48 h; mean of at least 2 independent experiments, triplicates
Method: as §2

[3] = test system: HIV strains from different subtypes; assay: TZM-bl antiviral assay, whole panel of strains; format: cell-based, HIV-1; conditions: Human immunodeficiency virus 1, TZM-bl, read-out: active concentration across the panel
Method: as §2

[4] = HEC gel formulated, applied at 0.5 to 2 mM

COc1ccnc2[nH]cc(C(=O)C(=O)N3CCN(C(=O)c4ccccc4)C[C@H]3C)c12 [BMS-378806]
IC50 (SHIV162P3 [1]): 5.5 nM | protection (SHIV; administered at 5.5 mM): 75%

Cc1cc(C)c(Nc2ccnc(Nc3ccc(C#N)cc3)n2)c(C)c1 [TMC120 Dapivirine, Dapivirine]
IC50 (HIV-1 Bal): 1.7 nM | IC50 (HIV-1 VI824): 1.2 nM | IC50 (HIV-1 p246F10): 1.4 nM | IC50 (HIV-1 pWITO.c/2474): 1.1 nM | IC50 (HIV-1 pZM247Fv2): 2.3 nM | IC50 (HIV-1 pREJO.c/2864 cl2): 1.6 nM | IC50 (HIV-1 MP568 (CRF02)): 1.1 nM | IC50 (HIV-1 pTHRO.c/2626): 1.9 nM | IC50 (HIV-1 Ca10-3 (CRF01)): 1.2 nM | IC50 (HIV-1 VI1888 (CRF01)): 2.1 nM | CC50 (TZM-bl cells): 2524 nM | IC50 (HIV-1 SF162): 1.3 nM | IC50 (HIV-1 MN): 1.5 nM | reduction in HIV-1 acquisition (HIV-1): up to 40% | IC50 (SHIV162P3 [2]): > 1000 nM | IC50 (HIV-1 VI820): 2 nM | IC50 (HIV-1 IIIB): 0.84 nM | IC50 (HIV-1 VI829): 1.3 nM | IC50 [3]: 1 to 2 nM

C[C@H](Cn1cnc2c(N)ncnc21)OCP(=O)(O)O [Tenofovir]
reduction in HIV-1 acquisition (HIV-1): up to 40%

maraviroc
protection (SHIV; 500 μM intravaginally): 50% | macaques remaining uninfected (SHIV; 6 mM intravaginally): 6 of 7

B1: cyanovirin: HEC gel formulated cyanovirin (protein, UniProt P81180 1-101, looked up)
Cyanovirin-N: LGKFSQTCYNSAIQGSVLTSTCERTNGGYNTSSIDLNSVIENVDGSLKWQPSNFIETCRNTQLAGSSELAAECKTRAQQFVSTKINLDDHIANIDGTLKYE
modifications: HEC gel formulation
animals protected (SHIV; [4]): 5 out of 6 | protection (SHIV; [4]): 83%
